Assay results taken from patent US20100021940A1, “Method for Determining the Activity of a Protease in a Sample” (ASTRAZENECA AB, priority 2006, published 2010).
“And” between values parts separate entries of the source, which are not always exact repeats. Equal values may be shown once.

Key:
MMP12 = target: T1, MMP12 (Homo sapiens, UniProt P39900); assay: Activity of purified MMP on substrate (reporter release); format: biochemical; settings: 30 μM substrate; MMP Conc. 0.27 nM; ABL010827
T1 construct: Recombinant human MMP12 catalytic domain may be expressed and purified; made in house
Description: In order to confirm the specificity of the substrates for various MMPs, standard enzymatic assays were adapted to monitor the release of reporter. The reporter was either analysed by a LC-MS method as described in Example 3a, or by a LC-UV method as described in Example 4.
Recombinant human MMP12 catalytic domain may be expressed and purified as described by Parkar A. A. et al, (2000), Protein Expression and Purification, 20, 152. The purified enzyme can be used to monitor activity of substrates as follows: MMP12 (50 ng/ml final […]) in assay buffer (0.1M “Tris-HCl” (trade mark) buffer, pH 7.3 containing 0.1M NaCl, 20 mM CaCl2, 0.020 mM ZnCl and 0.05% (w/v) “Brij 35” (trade mark) detergent) in the presence or absence of inhibitors. Activity is determined by measuring the release of reporter 4-nitroaniline by the using the method in Example 3a.

MMPs = assay: Cleavage of separated diastereomers by MMPs to liberate the reporter; format: biochemical
MMP9 = MMP9 activity in whole blood via 4-nitroaniline in plasma after zymosan stimulation (LC-MS); format: biochemical, human; settings: for 4-nitroaniline concentration, Mean: group mean; for 4-nitroaniline concentration: individual subjects, substrate 10 μM in plasma, 37° C., 60 min
Experimental: Samples of heparinised whole blood (1 mL) were stimulated with Zymosan (0, 50, 300, 600, 900 and 1200 μg/mL), vortexed or and incubated at 37° C. for 15 minutes. Plasma was collected after centrifugation, mixed with the substrate (10 μM) and incubated at 37° C. for 60 minutes. Methanol (300 μL), with (^13C)6-4-nitroaniline (1 μM) as internal standard, was added to a 100 μL aliquot of the above mixture and centrifuged to remove precipitated proteins. The supernatant (100 μL) was diluted with water (100 μL) and the extracts was injected directly onto a HPLC column.
Thaw, as required, pooled control human plasma, quality control and test samples. Add methyl 1-acetyl-L-prolyl-L-leucylglycyl-α-R-(4-nitrophenylamino)-glycyl-L-leucyl-β-alaninate (2 μL, solution D) to test plasma sample (200 μL) in 2 mL screw cap microtubes and mix on a vortex mixer.
Incubate tubes for 60 minutes at 37° C. in a shaking water bath. Prepare the calibration samples in plasma as detailed in Table 1 during the 60 minute incubation of test samples in step 3. Mix the samples on a vortex mixer.
Manually dispense aliquots (100 μL) of each plasma sample into separate wells of a 96 deep-well 2 mL plate using an appropriate pipette. (Note: start pipetting calibration, quality control and blank samples approximately 10 minutes before the test samples have finished their incubation in step 3). Dispense internal standard in methanol (300 μL) into each well using the Tecan. Cover the plate with polystyrene cover. Centrifuge at 3000 rpm for 5 minutes at room temperature.
Transfer an aliquot (100 μL) of the sample supernatant into separate wells of a 96 deep-well 2 mL plate using the Tecan. Mix water (100 μL) with each sample in the wells of a 96 deep-well polypropylene plate using the Tecan. Cover plate with pre-spilt 96 well seal.
Analyse 10 μL aliquots by LC/MS.
Whole blood samples were stimulated with varying concentrations of zymosan (0, 50, 300, 600, 900 and 1200 μg/mL). Plasma sample obtained from the stimulated whole blood samples were mixed with the substrate methyl 1-acetyl-L-prolyl-L-leucylglycyl-α-R-(4-nitrophenylamino)-glycyl-L-leucyl-β-alaninate at a plasma concentration of 10 μM and the samples were then incubated at 37° C. for 60 minutes. Aliquots (100 μL) of the human plasma were mixed with methanol (300 μL) containing [^13C]6-4-nitroaniline as an internal standard to precipitate the proteins and the sample was centrifuged and supernatants (100 μL) were mixed with water (100 μL). The extracts 10 μL were injected directly onto a Phenomenex Luna phenyl-hexyl column (50×2.0 mm, 5 μm) and the compounds eluted with a gradient mobile phase consisting of 0.01% ammonia/methanol. 4-nitroaniline was resolved from endogenous plasma constituents and the HPLC effluent was directed into the mass spectrometer via a heated nebuliser interface in negative mode. 4-nitroaniline and [^13C]6-4-nitroaniline were detected using single ion monitoring of the [M-H]^− ions at the mass to charge ratio of m/z 137 and 143 respectively. The method is described above.
The method is validated over the range 0.0500 to 10.0 μM for 4-nitroaniline based on the analysis of a 100 μL plasma sample. Quality control samples at concentrations of 0.100, 2.00 and 8.00 μM 4-nitroaniline were included to determine the acceptability of each analysis batch. The limit of quantification (LOQ) of the method is 0.0500 μM 4-nitroaniline for a 100 μL aliquot of plasma.

[1] = healthy volunteers, visit 3, zymosan 0 μg
[2] = healthy volunteers, visit 3, zymosan 50 μg
[3] = healthy volunteers, visit 3, zymosan 300 μg
[4] = healthy volunteers, visit 3, zymosan 600 μg
[5] = healthy volunteers, visit 3, zymosan 900 μg
[6] = healthy volunteers, visit 3, zymosan 1200 μg
[7] = healthy volunteers, visit 4, zymosan 0 μg
[8] = healthy volunteers, visit 4, zymosan 50 μg
[9] = healthy volunteers, visit 4, zymosan 300 μg
[10] = healthy volunteers, visit 4, zymosan 600 μg
[11] = healthy volunteers, visit 4, zymosan 900 μg
[12] = healthy volunteers, visit 4, zymosan 1200 μg

T1 sequence (P39900 106-263 limits assumed): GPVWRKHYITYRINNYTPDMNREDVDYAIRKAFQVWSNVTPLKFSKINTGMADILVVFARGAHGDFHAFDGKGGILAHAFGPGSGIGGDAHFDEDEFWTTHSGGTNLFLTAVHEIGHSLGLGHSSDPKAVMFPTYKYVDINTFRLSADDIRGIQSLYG

## COC(=O)CCNC(=O)[C@H](CC(C)C)NC(=O)[C@@H](NC(=O)CNC(=O)[C@H](CC(C)C)NC(=O)[C@@H]1CCCN1C(C)=O)Nc1ccc([N+](=O)[O-])cc1 [Example 1.1, Methyl 1-acetyl-L-prolyl-L-leucylglycyl-α-R-(4-nitrophenylamino)-glycyl-L-leucyl-β-alaninate]
MMP12
  Activity: 7.7 units/s
MMPs
  Cleavage by MMPs to liberate the reporter: rapidly cleaved by MMPs
MMP9; COPD patients, visit 3, zymosan 0 μg
  4-nitroaniline concentration, Mean: 0.128 µM
MMP9; COPD patients, visit 3, zymosan 50 μg
  4-nitroaniline concentration, Mean: 1.58 µM
MMP9; COPD patients, visit 3, zymosan 300 μg
  4-nitroaniline concentration, Mean: 3.56 µM
MMP9; COPD patients, visit 3, zymosan 600 μg
  4-nitroaniline concentration, Mean: 4.33 µM
MMP9; COPD patients, visit 3, zymosan 900 μg
  4-nitroaniline concentration, Mean: 4.77 µM
MMP9; COPD patients, visit 3, zymosan 1200 μg
  4-nitroaniline concentration, Mean: 4.68 µM
MMP9; COPD patients, visit 4, zymosan 0 μg
  4-nitroaniline concentration, Mean: 0.141 µM
MMP9; COPD patients, visit 4, zymosan 50 μg
  4-nitroaniline concentration, Mean: 1.51 µM
MMP9; COPD patients, visit 4, zymosan 300 μg
  4-nitroaniline concentration, Mean: 3.31 µM
MMP9; COPD patients, visit 4, zymosan 600 μg
  4-nitroaniline concentration, Mean: 4.03 µM
MMP9; COPD patients, visit 4, zymosan 900 μg
  4-nitroaniline concentration, Mean: 4.41 µM
MMP9; COPD patients, visit 4, zymosan 1200 μg
  4-nitroaniline concentration, Mean: 4.54 µM
MMP9; [1]
  4-nitroaniline concentration, Mean: 0.121 µM
  4-nitroaniline concentration: 0.145 μM (2×) and 0.132 μM and 0.126 μM and 0.0917 μM and 0.124 μM and 0.104 μM and 0.0963 μM and 0.118 μM and 0.123 μM
MMP9; [2]
  4-nitroaniline concentration, Mean: 1.22 µM
  4-nitroaniline concentration: 1.13 μM (2×) and 1.82 μM and 2.10 μM and 1.52 μM and 0.988 μM and 0.836 μM and 0.878 μM and 0.646 μM and 1.16 μM
MMP9; [3]
  4-nitroaniline concentration, Mean: 2.82 µM
  4-nitroaniline concentration: 2.48 µM and 3.68 µM and 2.65 µM and 4.32 µM and 3.63 µM and 2.82 µM and 2.31 µM and 2.42 µM and 1.56 µM and 2.28 µM
MMP9; [4]
  4-nitroaniline concentration, Mean: 3.36 µM
  4-nitroaniline concentration: 3.00 µM and 4.26 µM and 2.98 µM and 4.39 µM and 4.23 µM and 3.90 µM and 3.08 µM and 2.99 µM and 1.84 µM and 2.95 µM
MMP9; [5]
  4-nitroaniline concentration, Mean: 3.52 µM
  4-nitroaniline concentration: 3.05 µM and 4.50 µM and 3.14 µM and 4.38 µM and 4.24 µM and 3.98 µM and 3.45 µM and 3.35 µM and 2.07 µM and 2.99 µM
MMP9; [6]
  4-nitroaniline concentration, Mean: 3.59 µM
  4-nitroaniline concentration: 3.07 µM and 4.53 µM and 2.99 µM and 4.28 µM and 4.45 µM and 4.41 µM and 3.53 µM and 3.50 µM and 2.14 µM and 3.02 µM
MMP9; [7]
  4-nitroaniline concentration, Mean: 0.131 µM
  4-nitroaniline concentration: 0.154 µM and 0.192 µM and 0.106 µM and 0.0977 µM and 0.130 µM and 0.199 µM and 0.0803 µM
MMP9; [8]
  4-nitroaniline concentration, Mean: 0.986 µM
  4-nitroaniline concentration: 1.49 µM and 2.11 µM and 0.808 µM and 0.616 µM and 0.732 µM and 0.795 µM and 0.758 µM
MMP9; [9]
  4-nitroaniline concentration, Mean: 2.39 µM
  4-nitroaniline concentration: 2.81 µM and 4.29 µM and 1.92 µM and 1.68 µM and 1.98 µM and 2.29 µM and 2.22 µM
MMP9; [10]
  4-nitroaniline concentration, Mean: 2.84 µM
  4-nitroaniline concentration: 3.17 µM and 4.36 µM and 2.39 µM and 2.12 µM and 2.41 µM and 3.36 µM
MMP9; [11]
  4-nitroaniline concentration, Mean: 3.26 µM
  4-nitroaniline concentration: 3.27 μM and 5.53 μM and 2.69 μM and 2.46 μM and 3.03 μM and 3.48 μM (2×)
MMP9; [12]
  4-nitroaniline concentration, Mean: 3.39 µM
  4-nitroaniline concentration: 3.32 µM and 5.28 µM and 2.84 µM and 2.85 µM and 3.15 µM and 4.00 µM
MMP9; smokers, visit 3, zymosan 0 μg
  4-nitroaniline concentration, Mean: 0.149 µM
MMP9; smokers, visit 3, zymosan 50 μg
  4-nitroaniline concentration, Mean: 1.45 µM
MMP9; smokers, visit 3, zymosan 300 μg
  4-nitroaniline concentration, Mean: 3.35 µM
MMP9; smokers, visit 3, zymosan 600 μg
  4-nitroaniline concentration, Mean: 4.10 µM
MMP9; smokers, visit 3, zymosan 900 μg
  4-nitroaniline concentration, Mean: 4.45 µM
MMP9; smokers, visit 3, zymosan 1200 μg
  4-nitroaniline concentration, Mean: 4.47 µM
MMP9; smokers, visit 4, zymosan 0 μg
  4-nitroaniline concentration, Mean: 0.142 µM
MMP9; smokers, visit 4, zymosan 50 μg
  4-nitroaniline concentration, Mean: 1.66 µM
MMP9; smokers, visit 4, zymosan 300 μg
  4-nitroaniline concentration, Mean: 3.32 µM
MMP9; smokers, visit 4, zymosan 600 μg
  4-nitroaniline concentration, Mean: 3.76 µM
MMP9; smokers, visit 4, zymosan 900 μg
  4-nitroaniline concentration, Mean: 4.19 µM
MMP9; smokers, visit 4, zymosan 1200 μg
  4-nitroaniline concentration, Mean: 4.41 µM
